# Source: patent US12590950B2, “Methods for predicting ER-mediated DNA damage” (UNIVERSITY OF MASSACHUSETTS, priority 2019, dated 2026)
# Key:
# [1] = tested on: ER; conditions: compared to BP3; cited from earlier work
# [2] = tested on: TFF1; test: RT-qPCR of estrogen-responsive gene TFF1 in T47D cells; type: cell-based, human; conditions: fulvestrant 1 μM with 10 nM E2, T47D
# Method: RT-qPCR: RNA from T47D cells, MCF-7 Cells or flash-frozen 4th mammary gland was isolated with TRIzol (Thermofisher Scientific #15596018) and Direct-zol RNA MiniPrep Plus (Zymo Research #R2072). cDNA was prepared with Protoscript II First Strand cDNA Synthesis Kit (New England Biolabs #E6560S) and qPCR for TFF1, progesterone receptor (PGR) and Amphiregulin (AREG) was performed on CFX96 Real-Time System thermocycler (Bio-Rad) using primers in Table 1.
# [3] = tested on: T47D cells; test: γH2AX immunostaining (DNA damage) in T47D cells; type: cell-based, human
# Method: Immunostaining: Cells were grown in clearing media for 48 h and plated on 20 mm coverslip in 12 well plates with a density of 2×10^5 cells/well. […] Cells were washed with 1×PBS, blocked in 2% BSA/PBS with 0.1% Triton-X 100 for 1 hr at room temperature (RT), incubated overnight with γH2AX antibody (Cell Signaling #9718 S) or ERα antibody (Santa Cruz Biotechnology #sc-8002) at 4° C. and 1 hour with secondary antibody. S9.6: Cells were fixed in ice-cold 100% methanol for 10 min at −20° C., permeabilized in 100% acetone for 1 min at RT, blocked for 30 min in saline sodium citrate pH 7 (SSC, 4×), 3% BSA, 0.1% Triton-X and incubated with S9.6 (Kerafast #ENH001) 2 hr at RT followed by 1 h with secondary antibody. If indicated, slides were treated with RNase H (NEB #M0297L) for 4 hr at 37° C. prior to incubation with primary antibody. Stained cells were mounted with Vectashield mounting medium containing DAPI (Vector Laboratories #H-1200). Slides were imaged at 60× (immersion oil) with Nikon A1 Spectral Confocal microscope. Analysis of γH2AX and S9.6 intensity per nucleus or foci per nucleus was calculated using Nikon analysis software, where DAPI was used as a mask for the nucleus.
SMILES,ER transactivation potential [1],effect on transcriptional responses (TFF1) to E2 [2],"effect on E2-induced γH2AX intensity ([3]; fulvestrant 1 μM with 10 nM E2, T47D)","effect on γH2AX intensity in response to 5 μM BP3 and 5 μM PP ([3]; fulvestrant 1 μM, T47D)"
"O=C(c1ccccc1)c1ccc(O)cc1O [2,4-diOH-BP]",higher ER transactivation potential compared to BP3,–,–,–
C[C@]12CC[C@@H]3c4ccc(O)cc4C[C@@H](CCCCCCCCC[S+]([O-])CCCC(F)(F)C(F)(F)F)[C@H]3[C@@H]1CC[C@@H]2O (stereo partly shown) [fulvestrant],–,blocked,significantly reduced,inhibited
